{"source": "patent US20230210853A1", "about": "(Halia Therapeutics, Inc., priority 2020, published 2023)", "target": "T1, full-length recombinant human NEK7 (Homo sapiens, UniProt Q8TDX7)", "T1 construct": "full-length recombinant human NEK7; GST (N); purchased SignalChem N09-10G; host or cells: Sf9 insect cells (baculovirus)", "T1 sequence (Q8TDX7 whole entry)": "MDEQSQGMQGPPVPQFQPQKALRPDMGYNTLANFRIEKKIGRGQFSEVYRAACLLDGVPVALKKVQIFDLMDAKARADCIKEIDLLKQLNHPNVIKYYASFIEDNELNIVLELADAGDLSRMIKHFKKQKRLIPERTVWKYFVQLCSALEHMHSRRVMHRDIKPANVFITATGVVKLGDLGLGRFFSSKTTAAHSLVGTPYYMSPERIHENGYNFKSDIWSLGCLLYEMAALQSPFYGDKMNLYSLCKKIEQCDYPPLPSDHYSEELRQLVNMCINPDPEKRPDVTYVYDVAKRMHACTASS", "experiment": "NEK7 enzymatic assay ([33P]-ATP, casein substrate)", "type": "biochemical", "description": "In some embodiments, the IC50 of the compounds of Structure (I), (Ia), (Ib), (Ic), (Id), (Ie), or (If) to inhibit NEK7 was determined by the concentration of the compound required to inhibit 50% of the activity of the NEK kinase.\n(§1) Casein substrate (from bovine milk, hydrolyzed and partially dephosphorylated mixture of α, β and κ caseins, obtained from Sigma Aldrich, catalogue #C4765, diluted in distilled water to a final concentration of 1 mg/mL) and full-length recombinant human NEK7 (expressed by baculovirus in Sf9 insect cells using a N-terminal GST tag, obtained from SignalChem, catalogue #N09-10G, 0.1 μg/μL) were mixed in assay buffer (20 mM Hepes pH 7.5, 10 mM MgCl2, 1 mM EGTA, 0.02% Brij35, 0.02 mg/ml BSA, 0.1 mM Na3 VO4, 2 mM DTT, 1% DMSO). Compounds of interest (serial 3-fold dilution in DMSO from 10 μM to 0.5 nM) or vehicle (1% DMSO) were dispensed into the kinase reaction mixture by Acoustic technology (Echo550, nanoliter range). After incubation at room temperature for 20 minutes, the kinase reaction was initiated by addition of [^33P]-ATP (specific activity 10 μCi/μl) and the mixture was incubated at room temperature for 2 hours. The reaction was then stopped by spotting the reaction mixture on strips of phosphocellulose P81 paper. Following washing, the radioactivity of the P81 paper was measured and kinase activity data were expressed as the percent remaining kinase activity in test samples compared to vehicle reactions. IC50 values and curve fits were obtained using Prism (GraphPad Software).\nas §1, with “μg/L)” for “μg/μL)”, “Na3VO4,” for “Na3 VO4,”, “(Echo550;” for “(Echo550,”", "key": {"[1]": {"details": "Table 2a, recombinant human NEK7, casein substrate"}, "[2]": {"details": "Table 2e, recombinant human NEK7, casein substrate"}, "[3]": {"details": "Table 2d, recombinant human NEK7, casein substrate"}, "[4]": {"details": "Table 2b, recombinant human NEK7, casein substrate"}}}
{"smiles": "CC(C)(O)Cn1nc(-c2ccc(NC(=O)Nc3cc(C(C)(C)C)no3)cc2)c2c(N)ncnc21", "note": "[Ia-9, 1-(4-(4-amino-1-(2-hydroxy-2-methylpropyl)-1H-pyrazolo[3,4-d]pyrimidin-3-yl)phenyl)-3-(3-(tert-butyl)isoxazol-5-yl)urea]", "values": [{"measurement": "IC50", "setting": "[1]", "result": "301 to 500", "unit": "nM"}]}
{"smiles": "C=CCn1nc(-c2ccc(NC(=O)Nc3cc(C(C)(C)C)on3)c(F)c2)c2c(N)ncnc21", "note": "[Ia-26]", "values": [{"measurement": "IC50", "setting": "[1]", "result": "151 to 300", "unit": "nM"}]}
{"smiles": "Nc1ncnc2c1c(-c1ccc3c(c1Cl)CCN3C(=O)Cc1ccc(F)c(C(F)(F)F)c1)nn2C1COC1", "note": "[II-10, 1-(5-(4-amino-1-(oxetan-3-yl)-1H-pyrazolo[3,4-d]pyrimidin-3-yl)-4-chloroindolin-1-yl)-2-(4-fluoro-3-(trifluoromethyl)phenyl)ethan-1-one]", "values": [{"measurement": "IC50", "setting": "comparative compounds of Structure (II)", "result": "151 to 300", "unit": "nM"}]}
{"smiles": "Cc1cc(Oc2ccnc3[nH]c(Cl)c(Cl)c23)ccc1NC(=O)Nc1ccc(CN2CCN(C)CC2)c(C(F)(F)F)c1", "note": "[Ie-30, 1-(4-((2,3-dichloro-1H-pyrrolo[2,3-b]pyridin-4-yl)oxy)-2-methylphenyl)-3-(4-((4-methylpiperazin-1-yl)methyl)-3-(trifluoromethyl)phenyl)urea]", "values": [{"measurement": "IC50", "setting": "[2]", "result": "> 1500", "unit": "nM"}]}
{"smiles": "CC(C)N1CCN(Cc2ccc(NC(=O)Nc3ccc(-c4cn(C5CC5)c5ncnc(N)c45)cc3F)cc2C(F)(F)F)CC1", "note": "[Id-62]", "values": [{"measurement": "IC50", "setting": "[3]", "result": "< 150", "unit": "nM"}]}
{"smiles": "CC(C)(C)c1cc(NC(=O)Nc2ccc(-c3nn(C4CC4)c4ccnc(N)c34)cc2)on1", "note": "[Ia-31, 1-(4-(4-amino-1-cyclopropyl-1H-pyrazolo[4,3-c]pyridin-3-yl)phenyl)-3-(3-(tert-butyl)isoxazol-5-yl)urea]", "values": [{"measurement": "IC50", "setting": "[1]", "result": "501 to 1500", "unit": "nM"}]}
{"smiles": "CC(C)(C)c1cc(NC(=O)Nc2ccc(-c3nn(C4COC4)c4ncnc(N)c34)cc2)on1", "note": "[Ia-2, 1-(4-(4-amino-1-(oxetan-3-yl)-1H-pyrazolo[3,4-d]pyrimidin-3-yl)phenyl)-3-(3-(tert-butyl)isoxazol-5-yl)urea]", "values": [{"measurement": "IC50", "setting": "[1]", "result": "151 to 300", "unit": "nM"}]}
{"smiles": "CN1CCN(Cc2ccc(NC(=O)Nc3ccc(-c4cn(C5CC5)c5ncnc(N)c45)cc3F)c(F)c2)CC1", "note": "[Id-64]", "values": [{"measurement": "IC50", "setting": "[3]", "result": "501 to 1500", "unit": "nM"}]}
{"smiles": "CCC(CC)c1cc(NC(=O)Nc2ccc(-c3nn(C4CC4)c4ncnc(N)c34)cc2F)on1", "note": "[Ia-40, 1-(4-(4-amino-1-cyclopropyl-1H-pyrazolo[3,4-d]pyrimidin-3-yl)-2-fluorophenyl)-3-(3-(pentan-3-yl)isoxazol-5-yl)urea]", "values": [{"measurement": "IC50", "setting": "[1]", "result": "151 to 300", "unit": "nM"}]}
{"smiles": "COc1cc(CN2CCN(C)CC2)ccc1NC(=O)Nc1ccc(Oc2ccnc3[nH]cc(Cl)c23)cc1F", "note": "[Ie-40, 1-(4-((3-chloro-1H-pyrrolo[2,3-b]pyridin-4-yl)oxy)-2-fluorophenyl)-3-(2-methoxy-4-((4-methylpiperazin-1-yl)methyl)phenyl)urea]", "values": [{"measurement": "IC50", "setting": "[2]", "result": "> 1500", "unit": "nM"}]}
{"smiles": "CC(C)(C)c1cc(NC(=O)Nc2ccc(-c3nn(C4CCCOC4)c4ncnc(N)c34)cc2F)on1", "note": "(stereo not shown) [Ia-19, 1-(4-(4-amino-1-(tetrahydro-2H-pyran-3-yl)-1H-pyrazolo[3,4-d]pyrimidin-3-yl)-2-fluorophenyl)-3-(3-(tert-butyl)isoxazol-5-yl)urea]", "values": [{"measurement": "IC50", "setting": "[1]", "result": "301 to 500", "unit": "nM"}]}
{"smiles": "CC(C)(C)c1cc(NC(=O)NC2CCC(Oc3ccnc4[nH]ccc34)CC2)n(-c2ccccc2)n1", "note": "(stereo not shown) [Ib-16, 1-(4-((1H-pyrrolo[2,3-b]pyridin-4-yl)oxy)cyclohexyl)-3-(3-(tert-butyl)-1-phenyl-1H-pyrazol-5-yl)urea]", "values": [{"measurement": "IC50", "setting": "[4]", "result": "> 1500", "unit": "nM"}]}
{"smiles": "Cc1cc(NC(=O)Nc2ccc(-c3cn(C4CC4)c4ncnc(N)c34)cc2F)ccc1N1CCOCC1", "note": "[Id-32, 1-(4-(4-amino-7-cyclopropyl-7H-pyrrolo[2,3-d]pyrimidin-5-yl)-2-fluorophenyl)-3-(3-methyl-4-morpholinophenyl)urea]", "values": [{"measurement": "IC50", "setting": "[3]", "result": "> 1500", "unit": "nM"}]}
{"smiles": "CN1CCN(Cc2ccc(NC(=O)Nc3ccc(Oc4ccnc5[nH]cc(Cl)c45)cc3F)cc2F)CC1", "note": "[Ie-5, 1-(4-((3-chloro-1H-pyrrolo[2,3-b]pyridin-4-yl)oxy)-2-fluorophenyl)-3-(3-fluoro-4-((4-methylpiperazin-1-yl)methyl)phenyl)urea]", "values": [{"measurement": "IC50", "setting": "[2]", "result": "> 1500", "unit": "nM"}]}
{"smiles": "CN1CCC(Oc2ccc(NC(=O)Nc3ccc(-c4cn(C5CC5)c5ncnc(N)c45)cc3F)cc2C(F)(F)F)CC1", "note": "[Id-46, 1-(4-(4-amino-7-cyclopropyl-7H-pyrrolo[2,3-d]pyrimidin-5-yl)-2-fluorophenyl)-3-(4-((1-methylpiperidin-4-yl)oxy)-3-(trifluoromethyl)phenyl)urea]", "values": [{"measurement": "IC50", "setting": "[3]", "result": "< 150", "unit": "nM"}]}
{"smiles": "CN1CCN(Cc2ncc(NC(=O)Nc3ccc(-c4cn(C5CC5)c5ncnc(N)c45)cc3F)cc2C(F)(F)F)CC1", "note": "[Id-67]", "values": [{"measurement": "IC50", "setting": "[3]", "result": "< 150", "unit": "nM"}]}
{"smiles": "Cc1cc(-c2nn(C3CC3)c3ncnc(N)c23)ccc1NC(=O)Nc1cc(C2(C(F)(F)F)CC2)no1", "note": "[Ia-48, 1-(4-(4-amino-1-cyclopropyl-1H-pyrazolo[3,4-d]pyrimidin-3-yl)-2-methylphenyl)-3-(3-(1-(trifluoromethyl)cyclopropyl)isoxazol-5-yl)urea]", "values": [{"measurement": "IC50", "setting": "[1]", "result": "301 to 500", "unit": "nM"}]}
{"smiles": "CC(C)(O)Cn1nc(-c2ccc(NC(=O)Nc3cc(C(C)(C)C)no3)c(F)c2)c2c(N)ncnc21", "note": "[Ia-10]", "values": [{"measurement": "IC50", "setting": "[1]", "result": "< 150", "unit": "nM"}]}
{"smiles": "CC(C)(C)c1cc(NC(=O)Cc2ccc(Oc3ccnc4[nH]cc(Cl)c34)cc2F)n(-c2ccccc2)n1", "note": "[Ib-22, N-(3-(tert-butyl)-1-phenyl-1H-pyrazol-5-yl)-2-(4-((3-chloro-1H-pyrrolo[2,3-b]pyridin-4-yl)oxy)-2-fluorophenyl)acetamide]", "values": [{"measurement": "IC50", "setting": "[4]", "result": "> 1500", "unit": "nM"}]}
{"smiles": "CC(C)n1nc(-c2ccc(NC(=O)Nc3cc(C(C)(C)C)no3)cc2)c2c(N)ncnc21", "note": "[Ia-1, 1-(4-(4-amino-1-isopropyl-1H-pyrazolo[3,4-d]pyrimidin-3-yl)phenyl)-3-(3-(tert-butyl)isoxazol-5-yl)urea]", "values": [{"measurement": "IC50", "setting": "[1]", "result": "301 to 500", "unit": "nM"}]}
{"smiles": "CN(C)C1CCN(Cc2ccc(NC(=O)Nc3ccc(Oc4ccnc5[nH]cc(Cl)c45)cc3F)cc2C(F)(F)F)C1", "note": "(stereo not shown) [Ie-21, 1-(4-((3-chloro-1H-pyrrolo[2,3-b]pyridin-4-yl)oxy)-2-fluorophenyl)-3-(4-((3-(dimethylamino)pyrrolidin-1-yl)methyl)-3-(trifluoromethyl)phenyl)urea]", "values": [{"measurement": "IC50", "setting": "[2]", "result": "> 1500", "unit": "nM"}]}
{"smiles": "CC(C)(C)c1cc(NC(=O)Nc2ccc(-c3nn(C4CCC4)c4ncnc(N)c34)cc2F)on1", "note": "[Ia-8, 1-(4-(4-amino-1-cyclobutyl-1H-pyrazolo[3,4-d]pyrimidin-3-yl)-2-fluorophenyl)-3-(3-(tert-butyl)isoxazol-5-yl)urea]", "values": [{"measurement": "IC50", "setting": "[1]", "result": "< 150", "unit": "nM"}]}
{"smiles": "COCCN1CCN(Cc2ccc(NC(=O)Nc3ccc(Oc4ccnc5[nH]cc(Cl)c45)cc3F)cc2C(F)(F)F)CC1", "note": "[Ie-42, 1-(4-((3-chloro-1H-pyrrolo[2,3-b]pyridin-4-yl)oxy)-2-fluorophenyl)-3-(4-((4-(2-methoxyethyl)piperazin-1-yl)methyl)-3-(trifluoromethyl)phenyl)urea]", "values": [{"measurement": "IC50", "setting": "[2]", "result": "> 1500", "unit": "nM"}]}
{"smiles": "CCN1CCN(Cc2ccc(NC(=O)Nc3ccc(-c4cn(C5CC5)c5ncnc(N)c45)cc3F)cc2C(F)F)CC1", "note": "[Id-59]", "values": [{"measurement": "IC50", "setting": "[3]", "result": "> 1500", "unit": "nM"}]}
{"smiles": "CC(c1ccc(NC(=O)Nc2ccc(Oc3ccnc4[nH]cc(Cl)c34)cc2F)cc1C(F)(F)F)N1CCN(C)CC1", "note": "(stereo not shown) [Ie-13, 1-(4-((3-chloro-1H-pyrrolo[2,3-b]pyridin-4-yl)oxy)-2-fluorophenyl)-3-(4-(1-(4-methylpiperazin-1-yl)ethyl)-3-(trifluoromethyl)phenyl)urea]", "values": [{"measurement": "IC50", "setting": "[2]", "result": "501 to 1500", "unit": "nM"}]}
{"smiles": "CC(C)c1cc(NC(=O)Nc2ccc(-c3nn(C4CC4)c4ncnc(N)c34)cc2F)on1", "note": "[Ia-41, 1-(4-(4-amino-1-cyclopropyl-1H-pyrazolo[3,4-d]pyrimidin-3-yl)-2-fluorophenyl)-3-(3-isopropylisoxazo1-5-yl)urea]", "values": [{"measurement": "IC50", "setting": "[1]", "result": "301 to 500", "unit": "nM"}]}
{"smiles": "CC(C)(C)c1cc(NC(=O)Nc2ccc(-c3nn(C4CC4)c4ncnc(N)c34)cc2F)sn1", "note": "[Ia-35, 1-(4-(4-amino-1-cyclopropyl-1H-pyrazolo[3,4-d]pyrimidin-3-yl)-2-fluorophenyl)-3-(3-(tert-butyl)isothiazol-5-yl)urea]", "values": [{"measurement": "IC50", "setting": "[1]", "result": "501 to 1500", "unit": "nM"}]}
{"smiles": "COc1cc(CN2CCN(C)CC2)ccc1NC(=O)Nc1ccc(-c2cn(C3CC3)c3ncnc(N)c23)cc1F", "note": "[Id-52, 1-(4-(4-amino-7-cyclopropyl-7H-pyrrolo[2,3-d]pyrimidin-5-yl)-2-fluorophenyl)-3-(2-methoxy-4-((4-methylpiperazin-1-yl)methyl)phenyl)urea]", "values": [{"measurement": "IC50", "setting": "[3]", "result": "> 1500", "unit": "nM"}]}
